This assay addresses myrMA (myristoylated M-PMV matrix protein) (Mason-Pfizer monkey virus, UniProt P07567). Put plainly: 1H/[…] HSQC NMR titration. In kind it is binding.

Chain of myrMA (myristoylated M-PMV matrix protein) (P07567 2-118): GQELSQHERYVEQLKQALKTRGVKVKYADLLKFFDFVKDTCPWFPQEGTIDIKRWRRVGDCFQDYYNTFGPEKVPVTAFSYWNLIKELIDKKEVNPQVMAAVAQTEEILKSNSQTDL

Compound `CCCCCCCC(=O)OC[C@H](COP(=O)(O)O[C@@H]1[C@H](O)[C@H](O)[C@@H](OP(=O)(O)O)[C@H](OP(=O)(O)O)[C@H]1O)OC(=O)CCCCCCC` [C8-PI(4,5)P2] showed a Kd of 92.8 ± 7.5 µM.

Source of the values: paper PMC3579217 (Journal of molecular biology, 2012).
